In data set [1] the target is T1, CYP2D6 (Homo sapiens, UniProt P10635). Description: Inhibition of CYP2D6 in human liver microsomes at 1 uM preincubated for 5 mins followed by NADPH addition by LC-MS/MS analysis relative to control. The class given is ADME, Microsome. For orientation: Liver microsomes are vesicles of endoplasmic reticulum, rich in cytochrome P450 enzymes.
Data set [2] addresses T2, hERG (Homo sapiens, UniProt Q12809). As to the kind of experiment: Inhibition of hERG at 10 uM relative to control. The class given is toxicity. Background: The hERG channel carries a current that helps repolarise heart muscle cells.
In data set [3] the target is T1, CYP2D6. As to the kind of experiment: Inhibition of CYP2D6 in human liver microsomes at 10 uM preincubated for 5 mins followed by NADPH addition by LC-MS/MS analysis relative to control. Type of data set: ADME, Microsome.
For data set [4], the target named is T2, hERG. Description: Inhibition of hERG at 1 uM relative to control. The class given is toxicity.
Data set [5] is described as follows: Microsomal stability in human liver microsomes assessed as parent compound remaining at 1 uM measured upto 30 mins in presence of NADPH by LC-MS/MS analysis. The class given is ADME, Microsome. The note with it: liver microsomes, read-out: Stability.
Data set [6] in a line: Microsomal stability in rat liver microsomes assessed as parent compound remaining at 1 uM measured upto 30 mins in presence of NADPH by LC-MS/MS analysis. Type of data set: ADME, Microsome. The note with it: read-out: Stability.
Data set [7] deals with T3, Extracellular calcium-sensing receptor (Homo sapiens, UniProt P41180).
T3 sequence (P41180 whole entry): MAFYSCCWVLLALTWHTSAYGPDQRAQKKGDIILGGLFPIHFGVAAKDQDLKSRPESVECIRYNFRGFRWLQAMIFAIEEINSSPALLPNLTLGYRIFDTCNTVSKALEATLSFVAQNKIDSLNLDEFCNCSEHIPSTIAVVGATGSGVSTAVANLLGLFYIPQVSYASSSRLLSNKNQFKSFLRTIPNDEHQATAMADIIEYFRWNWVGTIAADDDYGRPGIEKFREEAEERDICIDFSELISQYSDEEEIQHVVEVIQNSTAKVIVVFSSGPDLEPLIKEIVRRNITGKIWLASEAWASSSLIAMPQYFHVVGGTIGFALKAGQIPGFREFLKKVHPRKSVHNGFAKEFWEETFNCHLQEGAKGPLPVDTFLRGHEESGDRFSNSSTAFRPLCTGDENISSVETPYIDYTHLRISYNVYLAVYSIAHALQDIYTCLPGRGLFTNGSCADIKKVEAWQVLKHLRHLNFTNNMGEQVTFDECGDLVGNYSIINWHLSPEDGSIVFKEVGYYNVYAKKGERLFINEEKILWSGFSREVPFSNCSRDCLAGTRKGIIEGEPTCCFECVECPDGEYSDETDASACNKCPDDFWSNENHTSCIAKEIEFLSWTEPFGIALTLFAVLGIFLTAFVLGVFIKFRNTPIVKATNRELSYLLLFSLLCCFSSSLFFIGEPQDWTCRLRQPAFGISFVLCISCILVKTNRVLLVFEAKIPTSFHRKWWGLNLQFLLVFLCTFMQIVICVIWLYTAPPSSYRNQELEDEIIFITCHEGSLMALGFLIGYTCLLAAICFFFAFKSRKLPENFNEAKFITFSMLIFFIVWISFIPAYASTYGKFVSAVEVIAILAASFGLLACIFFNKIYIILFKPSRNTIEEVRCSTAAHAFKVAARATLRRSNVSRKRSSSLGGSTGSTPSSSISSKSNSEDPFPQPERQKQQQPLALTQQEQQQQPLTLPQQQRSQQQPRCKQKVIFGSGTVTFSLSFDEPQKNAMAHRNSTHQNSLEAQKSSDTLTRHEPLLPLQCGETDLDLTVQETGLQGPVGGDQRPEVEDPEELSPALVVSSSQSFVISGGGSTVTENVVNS
Description: Agonist activity at human CaSR expresssed in HEK293 cells in presence of glucose by Fluo4NW dye based FLIPR assay. Type of data set: functional, cell-based.

T1 sequence (P10635 whole entry): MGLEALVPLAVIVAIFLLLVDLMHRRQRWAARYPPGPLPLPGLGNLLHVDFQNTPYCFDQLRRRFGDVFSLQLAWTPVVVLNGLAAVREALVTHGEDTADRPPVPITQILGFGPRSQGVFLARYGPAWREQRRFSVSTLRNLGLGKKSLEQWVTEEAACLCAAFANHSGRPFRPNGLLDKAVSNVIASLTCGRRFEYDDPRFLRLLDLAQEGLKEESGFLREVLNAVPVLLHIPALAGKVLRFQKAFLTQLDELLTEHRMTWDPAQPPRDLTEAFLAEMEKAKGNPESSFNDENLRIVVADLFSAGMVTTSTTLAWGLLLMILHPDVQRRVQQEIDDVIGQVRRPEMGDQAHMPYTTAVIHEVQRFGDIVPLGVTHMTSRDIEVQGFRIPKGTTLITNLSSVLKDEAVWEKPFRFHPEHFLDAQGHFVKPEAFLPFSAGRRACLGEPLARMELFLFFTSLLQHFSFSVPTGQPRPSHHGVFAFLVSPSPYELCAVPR
T2 sequence (Q12809 whole entry): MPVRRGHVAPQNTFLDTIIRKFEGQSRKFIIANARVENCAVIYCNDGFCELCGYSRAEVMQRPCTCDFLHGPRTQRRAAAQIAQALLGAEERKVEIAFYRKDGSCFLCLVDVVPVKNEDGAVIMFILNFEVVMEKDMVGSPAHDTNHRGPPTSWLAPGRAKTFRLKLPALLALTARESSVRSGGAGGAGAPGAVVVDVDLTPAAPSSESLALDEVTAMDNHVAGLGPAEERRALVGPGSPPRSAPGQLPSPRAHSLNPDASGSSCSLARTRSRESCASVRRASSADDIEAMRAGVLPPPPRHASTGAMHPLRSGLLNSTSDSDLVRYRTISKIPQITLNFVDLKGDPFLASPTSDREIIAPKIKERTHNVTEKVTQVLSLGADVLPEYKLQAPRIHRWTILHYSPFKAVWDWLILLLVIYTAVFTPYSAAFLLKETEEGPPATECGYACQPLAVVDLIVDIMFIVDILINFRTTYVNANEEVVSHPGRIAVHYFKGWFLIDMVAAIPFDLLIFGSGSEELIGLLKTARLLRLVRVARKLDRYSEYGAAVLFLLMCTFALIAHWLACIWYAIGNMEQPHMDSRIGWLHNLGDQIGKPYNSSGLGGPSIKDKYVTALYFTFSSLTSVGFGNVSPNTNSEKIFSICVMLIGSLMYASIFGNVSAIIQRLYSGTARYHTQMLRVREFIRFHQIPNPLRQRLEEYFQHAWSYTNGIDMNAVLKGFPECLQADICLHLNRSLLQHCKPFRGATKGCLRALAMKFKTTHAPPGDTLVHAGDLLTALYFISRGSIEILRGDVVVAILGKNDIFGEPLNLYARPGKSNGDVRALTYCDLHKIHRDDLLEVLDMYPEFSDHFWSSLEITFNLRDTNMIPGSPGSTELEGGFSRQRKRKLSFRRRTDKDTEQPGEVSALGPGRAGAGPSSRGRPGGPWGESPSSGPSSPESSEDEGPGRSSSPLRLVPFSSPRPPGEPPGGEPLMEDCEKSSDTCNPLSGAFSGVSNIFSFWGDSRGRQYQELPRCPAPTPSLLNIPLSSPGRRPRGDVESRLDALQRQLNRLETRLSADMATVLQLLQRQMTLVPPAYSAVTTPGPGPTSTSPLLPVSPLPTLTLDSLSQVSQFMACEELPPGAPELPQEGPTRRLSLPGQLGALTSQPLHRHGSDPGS

The inhibition is the drop in the measured response relative to a control, in per cent. For `C[C@@H](NCC1CN(C)c2ccccc2O1)c1cccc2ccccc12` (stereo partly specified), the inhibition at 1 µM against CYP2D6 [1] was determined as 92%; against hERG [4] it was 13%. Also, the inhibition at 10 µM at hERG [2] is 42%; against CYP2D6 [3] it was 93%. Moreover, the remaining at 0.5 h, 1 µM in data set [5] was 5%; in data set [6] it was 0%.

In the case of `C[C@@H](NCC1CN(c2ccccn2)c2ccccc2O1)c1cccc2ccccc12` (stereo partly specified), on CYP2D6 [1], the inhibition at 1 µM was 85%. In addition, at CYP2D6 [3], the inhibition at 10 µM was found to be 87%. The remaining at 0.5 h, 1 µM in data set [5] worked out at 2%; in data set [6], 5%.

For orientation: EC50 means the midpoint of the concentration-response curve. On to `C[C@@H](NCC1CN(c2cccc(C(=O)O)c2)c2ccccc2O1)c1cccc2ccccc12` (mixture of isomers; form 1), for which the results for the inhibition at 1 µM at CYP2D6 [1] and on hERG [4] were 27% and -1%, respectively. For the same compound, the EC50 in data set [7] (read-out: EC50) is 32.8 nM. Further, the inhibition at 10 µM at hERG [2] was -8%; against CYP2D6 [3] it was 41%. Moreover, the remaining at 0.5 h, 1 µM in data set [5] is 49%; in data set [6] it was 36%.

Take `COc1ccc(N2CC(CN[C@H](C)c3cccc4ccccc34)Oc3ccccc32)cc1C(=O)O` (mixture of isomers; form 1): in data set [7] (read-out: EC50), the EC50 is greater than 300 nM.

As for `COc1ccc([C@@H]2C[C@H](CN[C@H](C)c3cccc4ccccc34)Oc3ccccc32)cc1C(=O)O`, the inhibition at 1 µM is 0% against CYP2D6 [1] and -3% on hERG [4]. Besides, the inhibition at 10 µM against hERG [2] is -4%; against CYP2D6 [3] it was 0%. The results for the remaining at 0.5 h, 1 µM in data set [5] and in data set [6] were 77% and 88%, respectively.

Consider `Cc1ccc(N2CC(CN[C@H](C)c3cccc4ccccc34)Oc3ccccc32)cc1C(=O)O` (mixture of isomers), for which, in data set [7] (read-out: EC50), the EC50 is 71.4 nM.

In the case of `C[C@@H](NCC1CN(C(=O)c2ccccc2)c2ccccc2O1)c1cccc2ccccc12` (mixture of isomers; form 1), the inhibition at 1 µM against CYP2D6 [1] came out at 7%; at hERG [4] it was 16%. The EC50 in data set [7] (read-out: EC50) turned out to be 21 nM. Moreover, the figures for the inhibition at 10 µM at hERG [2] and against CYP2D6 [3] were 52% and 72%, respectively. The remaining at 0.5 h, 1 µM came to 3% in data set [5] and 0% in data set [6].

In the case of `C[C@@H](NC[C@H]1C[C@@H](c2ccc(F)c(C(=O)O)c2)c2ccccc2O1)c1cccc2ccccc12`, the inhibition at 1 µM against CYP2D6 [1] was 5%. Also, the inhibition at 10 µM against CYP2D6 [3] was 25%. Moreover, the figures for the remaining at 0.5 h, 1 µM in data set [5] and in data set [6] were 94% and 40%, respectively.

On to `C[C@@H](NCC1CN(c2ccc(F)c(C(=O)O)c2)c2ccccc2O1)c1cccc2ccccc12` (mixture of isomers; form 1), for which the inhibition at 10 µM at hERG [2] was 21%. The inhibition at 1 µM at hERG [4] was found to be 5%. For the same compound, the remaining at 0.5 h, 1 µM was 6% in data set [5] and 61% in data set [6].

Consider `C[C@@H](NCC1CN(C(=O)c2ccccc2)c2ccccc2O1)c1cccc2ccccc12` (mixture of isomers; form 2), for which the EC50 in data set [7] (read-out: EC50) is 90 nM.

With `C[C@@H](NCC1CN(c2ccccc2)c2ccccc2O1)c1cccc2ccccc12` (mixture of isomers; form 1), the inhibition at 1 µM at CYP2D6 [1] worked out at 87%; against hERG [4] it was 14%. Moreover, the EC50 in data set [7] (read-out: EC50) turned out to be 53.4 nM. Further, the inhibition at 10 µM at hERG [2] was found to be 26%. The remaining at 0.5 h, 1 µM in data set [5] turned out to be 1%; in data set [6] it was 3%.

Take `C[C@@H](NCC1CN(c2cccc(CC(=O)O)c2)c2ccccc2O1)c1cccc2ccccc12` (stereo partly specified): the EC50 in data set [7] (read-out: EC50) was determined as 104 nM.

As to `C[C@@H](NCC1CN(CC(F)(F)F)c2ccccc2O1)c1cccc2ccccc12` (stereo partly specified), at CYP2D6 [1], the inhibition at 1 µM worked out at 78%. The inhibition at 10 µM against CYP2D6 [3] was found to be 82%. In addition, the remaining at 0.5 h, 1 µM in data set [5] was 10%; in data set [6] it was 5%.

`Cc1ccc([C@H]2C[C@@H](CN[C@H](C)c3cccc4ccccc34)Oc3ccccc32)cc1C(=O)O`: the results for the inhibition at 1 µM on CYP2D6 [1] and on hERG [4] were 7% and 9%, respectively. In addition, the EC50 in data set [7] (read-out: EC50) is 3.7 nM. Besides, the inhibition at 10 µM against hERG [2] was determined as 1%; at CYP2D6 [3] it was 32%. Moreover, the remaining at 0.5 h, 1 µM in data set [5] stood at 74%; in data set [6], 62%.

Turning to `Cc1c(C(=O)O)cccc1[C@@H]1C[C@H](CN[C@H](C)c2cccc3ccccc23)Oc2ccccc21`, the inhibition at 1 µM on CYP2D6 [1] stood at 7%. Moreover, the inhibition at 10 µM against CYP2D6 [3] stood at 25%. The remaining at 0.5 h, 1 µM in data set [5] was determined as 47%; in data set [6], 52%.

As for `C[C@@H](NC[C@H]1C[C@H](c2cccc(C(=O)O)c2)c2ccccc2O1)c1cccc2ccccc12`, at CYP2D6 [1], the inhibition at 1 µM was 8%. On CYP2D6 [3], the inhibition at 10 µM was 24%. The values for the remaining at 0.5 h, 1 µM in data set [5] and in data set [6] were 57% and 31%, respectively.

`C[C@@H](NCC1CN(c2cccc(OCC(=O)O)c2)c2ccccc2O1)c1cccc2ccccc12` (stereo partly specified): the inhibition at 1 µM against CYP2D6 [1] came to 6%; at hERG [4] it was 43%. The EC50 in data set [7] (read-out: EC50) is 36.4 nM. The inhibition at 10 µM at hERG [2] was 66%; at CYP2D6 [3] it was 36%. Moreover, the remaining at 0.5 h, 1 µM was 45% in data set [5] and 87% in data set [6].

With `C[C@@H](NC[C@H]1C[C@@H](c2cccc(C(=O)O)c2)c2ccccc2O1)c1cccc2ccccc12`, the inhibition at 1 µM at CYP2D6 [1] was 17%. Besides, the inhibition at 10 µM against CYP2D6 [3] was found to be 35%. Further, the remaining at 0.5 h, 1 µM was determined as 42% in data set [5] and 31% in data set [6].

On to `COc1ccc(N2CC(CN[C@H](C)c3cccc4ccccc34)Oc3ccccc32)cc1C(=O)O` (mixture of isomers; form 2), for which, in data set [7] (read-out: EC50), the EC50 was greater than 90 nM.

Turning to `C[C@@H](NCC1CN(c2cccc(CCC(=O)O)c2)c2ccccc2O1)c1cccc2ccccc12.Cl` (mixture of isomers), the half-maximal effective concentration (EC50) entry in data set [7] (hek293) is “Not Active”; in data set [7] (read-out: EC50), 70.4 nM.

For the compound `Cc1cc(C(=O)O)cc([C@@H]2C[C@H](CN[C@H](C)c3cccc4ccccc34)Oc3ccccc32)c1`, the inhibition at 1 µM on CYP2D6 [1] and against hERG [4] was 0% throughout. In data set [7] (read-out: EC50), the EC50 is 8.3 nM. For the same compound, the inhibition at 10 µM was determined as 6% against hERG [2] and 33% on CYP2D6 [3]. The remaining at 0.5 h, 1 µM in data set [5] worked out at 80%; in data set [6], 25%.

On to `Cc1ccc(C(=O)O)cc1[C@@H]1C[C@H](CN[C@H](C)c2cccc3ccccc23)Oc2ccccc21`, for which the figures for the inhibition at 1 µM against CYP2D6 [1] and on hERG [4] were 7% and 5%, respectively. For the same compound, the inhibition at 10 µM against hERG [2] was determined as 2%; against CYP2D6 [3] it was 36%. Moreover, the figures for the remaining at 0.5 h, 1 µM in data set [5] and in data set [6] were 80% and 52%, respectively.

On to `Cc1cc(C(=O)O)cc(N2CC(CN[C@H](C)c3cccc4ccccc34)Oc3ccccc32)c1` (mixture of isomers; form 2), for which the EC50 in data set [7] (read-out: EC50) is 169 nM.

Regarding `C[C@@H](NCC1CN(c2cccc(C(=O)O)c2)c2ccccc2O1)c1cccc2ccccc12` (mixture of isomers; form 2), the EC50 in data set [7] (read-out: EC50) worked out at 146 nM.

On to `C[C@@H](NCC1CN(c2ccccc2C(=O)O)c2ccccc2O1)c1cccc2ccccc12.Cl` (mixture of isomers), for which the EC50 entry in data set [7] (hek293) is “Not Active”.

For the compound `Cc1ccc([C@H]2C[C@H](CN[C@H](C)c3cccc4ccccc34)Oc3ccccc32)cc1C(=O)O`, the EC50 in data set [7] (read-out: EC50) stood at 58.5 nM.

Regarding `C[C@@H](NCC1CNc2ccccc2O1)c1cccc2ccccc12` (stereo partly specified), the figures for the inhibition at 1 µM against CYP2D6 [1] and against hERG [4] were 94% and 19%, respectively. Also, the inhibition at 10 µM on hERG [2] amounted to 97%; on CYP2D6 [3], 94%. The remaining at 0.5 h, 1 µM in data set [5] came out at 18%; in data set [6], 0%.

For `Cc1cc(C(=O)O)cc(N2CC(CN[C@H](C)c3cccc4ccccc34)Oc3ccccc32)c1` (mixture of isomers; form 1), in data set [7] (read-out: EC50), the EC50 amounted to 84.1 nM.

For `C[C@@H](NCC1CN(c2ccccc2)c2ccccc2O1)c1cccc2ccccc12` (mixture of isomers; form 2), the EC50 in data set [7] (read-out: EC50) turned out to be 114 nM.

These data come from ChEMBL document CHEMBL5346964, “Discovery of LNP1892: A Precision Calcimimetic for the Treatment of Secondary Hyperparathyroidism” (J Med Chem, 2023).
